Data published in US20100226889A1, “HCV Combination Therapies” (priority 2007, published 2010).
“Also recorded” adds a separate entry of the source.

Key:
[1] = Randomized, double-blind, placebo-controlled single-dose escalation study in healthy male volunteers; assay type: in vivo, human; details: single doses, 25 mg to 1250 mg
Method: Doses of 25 mg to 1250 mg were evaluated.

[2] = test system: VX-950-resistant variants of HCV; assay: IC50 shift of VX-950-resistant variants
[3] = Oral bioavailability of VX-950 (statement); details: in vivo
[4] = test system: genotype 1 HCV; details: PROVE 1
[5] = test system: HCV genotype 1; assay: Phase 1b trial, Study VX04-950-101; details: subjects infected with HCV genotype 1

CCC[C@H](NC(=O)[C@@H]1[C@H]2CCC[C@H]2CN1C(=O)[C@@H](NC(=O)[C@@H](NC(=O)c1cnccn1)C1CCCCC1)C(C)(C)C)C(=O)C(=O)NC1CC1 [VX-950]
serious / severe adverse events [1]: No serious adverse events were reported; also recorded: No adverse events were considered to be severe | tolerability [1]: well tolerated at all dose levels | increase in IC50 [2]: 7-20 fold | oral bioavailability [3]: orally bioavailable | pharmacokinetics of telaprevir among the different racial/ethnic groups [4]: No differences were observed | antiviral activity [5]: substantial antiviral activity
